The source of these data is patent US11591336B2 (Relay Therapeutics, Inc., priority 2017, dated 2023).

Where a name gives a salt, the structure may show the parent alone.

Sequence of SHP2 (Q06124 whole entry): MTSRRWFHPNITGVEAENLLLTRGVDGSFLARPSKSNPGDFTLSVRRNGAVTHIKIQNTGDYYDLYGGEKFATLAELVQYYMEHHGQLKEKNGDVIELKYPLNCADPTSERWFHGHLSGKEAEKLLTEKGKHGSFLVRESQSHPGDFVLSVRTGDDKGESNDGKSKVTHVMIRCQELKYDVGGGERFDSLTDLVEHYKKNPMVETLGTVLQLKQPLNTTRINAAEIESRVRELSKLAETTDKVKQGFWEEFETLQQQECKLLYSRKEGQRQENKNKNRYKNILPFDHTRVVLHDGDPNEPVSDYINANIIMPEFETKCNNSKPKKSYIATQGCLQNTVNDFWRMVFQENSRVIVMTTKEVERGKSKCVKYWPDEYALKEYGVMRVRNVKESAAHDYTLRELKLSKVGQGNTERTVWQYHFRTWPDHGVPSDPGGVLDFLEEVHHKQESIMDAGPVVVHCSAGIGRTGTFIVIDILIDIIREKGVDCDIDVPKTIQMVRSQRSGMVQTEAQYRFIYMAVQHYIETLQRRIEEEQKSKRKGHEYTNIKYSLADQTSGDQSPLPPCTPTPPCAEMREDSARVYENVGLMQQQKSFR

This test concerns the target SHP2 (Homo sapiens (Human), UniProt Q06124). Description: SHP2 Allosteric Inhibition Assay (DiFMUP prompt fluorescence). The format is biochemical. Conditions: 0.25 nM SHP2 activated with 0.5 μM peptide IRS1_pY1172(dPEG8)pY1222; substrate DiFMUP 100 μM; 25° C.
`c1cnc2c(c1)N(c1n[nH]c3nc(N4CCCCC4)cnc13)CCC2` [Compound 155] registered an IC50 of at least 10000 nM.
For `c1cncc(COC2CCCN(c3cnc4c(N5CCCc6ncccc65)n[nH]c4n3)C2)c1` (centres unmarked) [Compound 156] the value was at least 10000 nM; for `NC(=O)C1CCN(c2cnc3c(N4CCCc5ncccc54)n[nH]c3n2)CC1` [Compound 157], 1000 to 10000 nM; for `NC(=O)NC1CCN(c2cnc3c(N4CCCc5ncccc54)n[nH]c3n2)CC1` [Compound 160], at least 10000 nM.
Compound `c1ccc(CC2CCCCN2c2cnc3c(N4CCCc5ncccc54)n[nH]c3n2)cc1` (centres unmarked) [Compound 161] gave an IC50 of at least 10000 nM.
For `c1ccc(C2CCCCN2c2cnc3c(N4CCCc5ncccc54)n[nH]c3n2)cc1` (centres unmarked) [Compound 162], the IC50 is at least 10000 nM.
For `CC1(CN)CCN(c2cnc3c(N4CCOc5ccccc54)n[nH]c3n2)CC1` [Compound 163] the value was below 1000 nM; for `CC1(CN)CCN(c2cnc3c(N4CCc5c(C#N)cccc54)n[nH]c3n2)CC1` [Compound 164], below 1000 nM; for `CC1CCN(c2n[nH]c3nc(N4CCC(C)(CN)CC4)cnc23)c2ccc(-c3ncn[nH]3)cc21` (centres unmarked) [Compound 165], below 1000 nM.
For the compound `CC1(CNC(=O)OCCSSCCOC(=O)NCC2(C)CCN(c3cnc4c(N5CCCc6ncccc65)n[nH]c4n3)CC2)CCN(c2cnc3c(N4CCCc5ncccc54)n[nH]c3n2)CC1` [Compound 166, disulfanediylbis(ethane-2,1-diyl) bis(((1-(3-(3,4-dihydro-1,5-naphthyridin-1(2H)-yl)-1H-pyrazolo[3,4-b]pyrazin-6-yl)-4-methylpiperidin-4-yl)methyl)carbamate)], the IC50 is below 1000 nM.
For `NC[C@H]1CCN(c2cnc3c(N4CCCc5ncccc54)n[nH]c3n2)[C@H](c2ccccc2)C1` [Compound 167] the value was 1000 to 10000 nM; for `NC[C@@H]1CCN(c2cnc3c(N4CCCc5ncccc54)n[nH]c3n2)[C@@H](c2ccccc2)C1` [Compound 168], 1000 to 10000 nM; for `CC1c2ccccc2CCN1c1n[nH]c2nc(N3CCC(C)(CN)CC3)cnc12` (centres unmarked) [Compound 169], below 1000 nM.
`C[C@H]1c2ccccc2CN1c1n[nH]c2nc(N3CCC(C)(CN)CC3)cnc12` [Compound 170] registered an IC50 below 1000 nM.
For `CC1CCN(c2n[nH]c3nc(N4CCC(CN)(CC(=O)O)CC4)cnc23)c2cccnc21` (centres unmarked) [Compound 171, 2-[4-(aminomethyl)-1-[3-(4-methyl-1,2,3,4-tetrahydro-1,5-naphthyridin-1-yl)-1H-pyrazolo[3,4-b]pyrazin-6-yl]piperidin-4-yl]acetic acid] the value was 1000 to 10000 nM; for `CC1(CN)CCN(c2cnc3c(N4CCCc5cc(-c6ncon6)ccc54)n[nH]c3n2)CC1` [Compound 172, (1-(3-(6-(1,2,4-oxadiazol-3-yl)-3,4-dihydroquinolin-1(2H)-yl)-1H-pyrazolo[3,4-b]pyrazin-6-yl)-4-methylpiperidin-4-yl)methanamine], below 1000 nM; for `CC1(CN)CCN(c2cnc3c(N4CCc5c(-c6nccs6)cccc54)n[nH]c3n2)CC1` [Compound 173], below 1000 nM.
`COC(=O)NCC1(C)CCN(c2cnc3c(N4CCCc5cc(C#N)ccc54)n[nH]c3n2)CC1` [Compound 174, methyl ((1-(3-(6-cyano-3,4-dihydroquinolin-1(2H)-yl)-1H-pyrazolo[3,4-b]pyrazin-6-yl)-4-methylpiperidin-4-yl)methyl)carbamate] showed a 50% inhibitory concentration (IC50) of at least 10000 nM.
For `CC1(CN)CCN(c2cnc3c(N4CCCc5nc(C(N)=O)ccc54)n[nH]c3n2)CC1` [Compound 175, 5-(6-(4-(aminomethyl)-4-methylpiperidin-1-yl)-1H-pyrazolo[3,4-b]pyrazin-3-yl)-5,6,7,8-tetrahydro-1,5-naphthyridine-2-carboxamide] the value was below 1000 nM.
For `NCC1(CN)CCN(c2cnc3c(N4CCCc5ncccc54)n[nH]c3n2)CC1` [Compound 177, 1-[4-(aminomethyl)-1-[3-(1,2,3,4-tetrahydro-1,5-naphthyridin-1-yl)-1H-pyrazolo[3,4-b]pyrazin-6-yl]piperidin-4-yl]methanamine dihydrochloride] the value was below 1000 nM; for `NC(C(=O)O)C1CCN(c2cnc3c(N4CCCc5ncccc54)n[nH]c3n2)CC1` (centres unmarked) [Compound 178, 2-amino-2-{1-[3-(1,2,3,4-tetrahydro-1,5-naphthyridin-1-yl)-1H-pyrazolo[3,4-b]pyrazin-6-yl]piperidin-4-yl}acetic acid dihydrochloride], 1000 to 10000 nM.
For `NCC1(N)CCN(c2cnc3c(N4CCCc5ncccc54)n[nH]c3n2)CC1` [Compound 179] the value was below 1000 nM; for `NCC1(C(N)=O)CCN(c2cnc3c(N4CCCc5ncccc54)n[nH]c3n2)CC1` [Compound 180, 4-(aminomethyl)-1-(3-(3,4-dihydro-1,5-naphthyridin-1(2H)-yl)-1H-pyrazolo[3,4-b]pyrazin-6-yl)piperidine-4-carboxamide], below 1000 nM; for `CC1(CN)CCN(c2cnc3c(N4CCC(C(F)F)c5cc(C#N)ccc54)n[nH]c3n2)CC1` (centres unmarked) [Compound 181, 1-{6-[4-(aminomethyl)-4-methylpiperidin-1-yl]-1H-pyrazolo[3,4-b]pyrazin-3-yl}-4-(difluoromethyl)-1,2,3,4-tetrahydroquinoline-6-carbonitrile], below 1000 nM.
Turning to `Cn1cc(-c2ccc3c(n2)CCCN3c2n[nH]c3nc(N4CCC(C)(CN)CC4)cnc23)cn1` [Compound 182], the IC50 was below 1000 nM.
For `C[C@H]1CCN(c2n[nH]c3nc(N4CCC(C)(CN)CC4)cnc23)c2ccc(-c3ncon3)cc21` [Compound 183, 1-(4-methyl-1-{3-[(4S)-4-methyl-6-(1,2,4-oxadiazol-3-yl)-1,2,3,4-tetrahydroquinolin-1-yl]-1H-pyrazolo[3,4-b]pyrazin-6-yl}piperidin-4-yl)methanamine] the value was below 1000 nM.
For `CC1(CN)CCN(c2cnc3c(N4CCCc5c4cccc5S(C)(=O)=O)n[nH]c3n2)CC1` [Compound 185] the value was below 1000 nM; for `CN1CCN(c2n[nH]c3nc(N4CCC(C)(CN)CC4)cnc23)c2cccnc21` [Compound 186], below 1000 nM.
For `CC(=O)N1CCN(c2n[nH]c3nc(N4CCC(C)(CN)CC4)cnc23)c2ccc(C#N)cc21` [Compound 187] the value was below 1000 nM; for `Cn1cc(-c2ccc3c(n2)OCCN3c2n[nH]c3nc(N4CCC(C)(CN)CC4)cnc23)cn1` [Compound 188], below 1000 nM.
Compound `CNC(=O)N1CCN(c2n[nH]c3nc(N4CCC(C)(CN)CC4)cnc23)c2ccccc21` [Compound 189] gave an IC50 below 1000 nM.
Consider `CC1(CN)CCN(c2cnc3c(N4CCNc5ccccc54)n[nH]c3n2)CC1` [Compound 190], for which the IC50 was below 1000 nM.
For `CSc1cccc2c1CCCN2c1n[nH]c2nc(N3CCC(C)(CN)CC3)cnc12` [Compound 191] the value was below 1000 nM.
For `C[S+]([O-])c1cccc2c1CCCN2c1n[nH]c2nc(N3CCC(C)(CN)CC3)cnc12` (centres unmarked) [Compound 192] the value was below 1000 nM.
For `CCC(=O)N1CCN(c2n[nH]c3nc(N4CCC(C)(CN)CC4)cnc23)c2ccccc21` [Compound 193] the value was below 1000 nM.
`CC1(CN)CCN(c2cnc3c(N4CCN(C(=O)CO)c5ccccc54)n[nH]c3n2)CC1` [Compound 194, 1-(4-(6-(4-(aminomethyl)-4-methylpiperidin-1-yl)-1H-pyrazolo[3,4-b]pyrazin-3-yl)-3,4-dihydroquinoxalin-1(2H)-yl)-2-hydroxyethan-1-one]: the IC50 was below 1000 nM.
For `CN1CCN(c2n[nH]c3nc(N4CCC(C)(CN)CC4)cnc23)c2ccc(Cl)nc21` [Compound 195] the value was below 1000 nM; for `C[C@H]1CCN(c2n[nH]c3nc(N4CCC(C)(CN)CC4)cnc23)c2ccc(-c3nnc[nH]3)nc21` [Compound 198, 1-(4-methyl-1-{3-[(4S)-4-methyl-6-(4H-1,2,4-triazol-3-yl)-1,2,3,4-tetrahydro-1,5-naphthyridin-1-yl]-1H-pyrazolo[3,4-b]pyrazin-6-yl}piperidin-4-yl)methanamine], below 1000 nM.
For `C[C@@H]1CCN(c2n[nH]c3nc(N4CCC(C)(CN)CC4)cnc23)c2ccc(-c3nnc[nH]3)nc21` [Compound 199, 1-(4-methyl-1-{3-[(4R)-4-methyl-6-(4H-1,2,4-triazol-3-yl)-1,2,3,4-tetrahydro-1,5-naphthyridin-1-yl]-1H-pyrazolo[3,4-b]pyrazin-6-yl}piperidin-4-yl)methanamine] the value was below 1000 nM.
Consider `C[C@@H]1OCC2(CCN(c3cnc4c(N5CCCc6ncccc65)n[nH]c4n3)CC2)C1O` (stereo partly drawn) [Compound 201, (3S)-8-(3-(3,4-dihydro-1,5-naphthyridin-1(2H)-yl)-1H-pyrazolo[3,4-b]pyrazin-6-yl)-3-methyl-2-oxa-8-azaspiro[4.5]decan-4-ol], for which the IC50 is at least 10000 nM.
For `NC1=NCCC12CCN(c1cnc3c(N4CCCc5ncccc54)n[nH]c3n1)CC2` [Compound 202, 8-(3-(3,4-dihydro-1,5-naphthyridin-1(2H)-yl)-1H-pyrazolo[3,4-b]pyrazin-6-yl)-2,8-diazaspiro[4.5]dec-1-en-1-amine dihydrochloride] the value was below 1000 nM; for `NC1CCCC12CCN(c1cnc3c(N4CCCc5ncccc54)n[nH]c3n1)C2` (centres unmarked) [Compound 203, 2-(3-(3,4-dihydro-1,5-naphthyridin-1(2H)-yl)-1H-pyrazolo[3,4-b]pyrazin-6-yl)-2-azaspiro[4.4]nonan-6-amine], 1000 to 10000 nM; for `C[C@@H]1OCC2(CCN(c3cnc4c(N5CCCc6c5ccc(C#N)c6C5CC5)n[nH]c4n3)CC2)[C@@H]1N` [Compound 207], below 1000 nM.
For the compound `Cc1c(C#N)ccc2c1CCCN2c1n[nH]c2nc(N3CCC4(CC3)CO[C@@H](C)[C@H]4N)cnc12` [Compound 208], the IC50 was below 1000 nM.
For `C[C@@H]1OCC2(CCN(c3cnc4c(N5CCCc6c(-c7cnn(C)c7)cccc65)n[nH]c4n3)CC2)[C@@H]1N` [Compound 209] the value was below 1000 nM; for `C[C@@H]1OCC2(CCN(c3cnc4c(N5CCCc6c5ccc(C#N)c6-c5cnn(C)c5)n[nH]c4n3)CC2)[C@@H]1N` [Compound 210], 1000 to 10000 nM; for `N[C@H]1CCCC12CCN(c1cnc3c(N4CCCc5ncccc54)n[nH]c3n1)CC2` [Compound 211], below 1000 nM.

By IC50 is commonly meant the midpoint of a concentration-inhibition curve. A low value points to inhibition by little substance.
